Values after ≈ are worked out from the molar mass of the structure shown.
Legend:
Type in all cases: functional
Escherichia coli [1] = assay: Antibacterial activity against Escherichia coli DK3535
Staphylococcus aureus [2] = assay: Antibacterial activity against Staphylococcus aureus ATCC 33591
Streptococcus pneumoniae [3] = assay: Antibacterial activity against Streptococcus pneumoniae 655 mef A
Staphylococcus aureus [4] = assay: Antibacterial activity against Staphylococcus aureus UCN17
Escherichia coli [5] = assay: Antibacterial activity against Escherichia coli DK2058G
Streptococcus pneumoniae [6] = assay: Antibacterial activity against Streptococcus pneumoniae 2196 erm B
Staphylococcus aureus [7] = assay: Antibacterial activity against Staphylococcus aureus UCN18
Staphylococcus aureus [8] = assay: Antibacterial activity against Staphylococcus aureus UCN14
Streptococcus pneumoniae [9] = assay: Antibacterial activity against Streptococcus pneumoniae 2634 mef A 2059G
Klebsiella pneumoniae = assay: Antibacterial activity against Klebsiella pneumoniae BAA 2146
Enterococcus faecium = assay: Antibacterial activity against Enterococcus faecium NCTC 7171
Pseudomonas aeruginosa = assay: Antibacterial activity against Pseudomonas aeruginosa HER 1018
Enterobacter cloacae = assay: Antibacterial activity against Enterobacter cloacae ATCC 13047
Acinetobacter baumannii = assay: Antibacterial activity against Acinetobacter baumannii 2208 ATCC 19606
Escherichia coli [10] = assay: Antibacterial activity against Escherichia coli MG1655
Staphylococcus aureus [11] = assay: Antibacterial activity against methicillin-resistant Staphylococcus aureus ATCC 43300
Escherichia coli [12] = assay: Antibacterial activity against Escherichia coli SQ171 2058G
Staphylococcus aureus [13] = assay: Antibacterial activity against Staphylococcus aureus ATCC 29213
Escherichia coli [14] = assay: Antibacterial activity against Escherichia coli SQ171
Escherichia coli [15] = assay: Antibacterial activity against Escherichia coli DK

Compound | MIC (Escherichia coli [1]) [µM] | MIC (Staphylococcus aureus [2]) [µM] | MIC (Streptococcus pneumoniae [3]) [µM] | MIC (Staphylococcus aureus [4]) [µM] | MIC (Escherichia coli [5]) [µM] | MIC (Streptococcus pneumoniae [6]) [µM] | MIC (Staphylococcus aureus [7]) [µM] | MIC (Staphylococcus aureus [8]) [µM] | MIC (Streptococcus pneumoniae [9]) [µM] | MIC (Klebsiella pneumoniae) [µM] | MIC (Enterococcus faecium) [µM] | MIC (Pseudomonas aeruginosa) [µM] | MIC (Enterobacter cloacae) [µM] | MIC (Acinetobacter baumannii) [µM] | MIC (Escherichia coli [10]) [µM] | MIC (Staphylococcus aureus [11]) [µM] | MIC (Escherichia coli [12]) [µM] | MIC (Staphylococcus aureus [13]) [µM] | MIC (Escherichia coli [14]) [µM] | MIC (Escherichia coli [15]) [µM]
CC[C@H]1OC(=O)[C@@](C)(F)C(=O)[C@H](C)[C@@H](OC[C@@H](O)CN2CCCCC2)[C@](C)(OC)C[C@@H](C)C(=O)[C@H](C)C2N(CCCCn3cc(-c4cccc(N)c4)nn3)C(=O)O[C@@]21C (single isomer, unassigned) | 9.6 (≈ 7.96 µg/mL) | > 150 | > 4.8 | > 150 | 4.8 (≈ 3.98 µg/mL) | > 4.8 | > 150 | > 150 | > 4.8 |  |  |  |  |  |  |  |  |  |  | 
CC(=O)NC[C@H]1CN(c2ccc(N3CCOCC3)c(F)c2)C(=O)O1 [LINEZOLID] |  |  |  |  |  |  |  |  |  | > 200 | 6 (≈ 2.02 µg/mL) | > 200 | > 200 | > 200 | > 200 | 6 (≈ 2.02 µg/mL) |  |  |  | 
CC[C@H]1OC(=O)[C@@](C)(F)C(=O)[C@H](C)[C@@H](O[C@@H]2O[C@H](C)C[C@H](N(C)C)[C@H]2O)[C@](C)(OC)C[C@@H](C)C(=O)[C@H](C)[C@H]2N(CCCCn3cc(-c4cccc(N)c4)nn3)C(=O)O[C@]12C [SOLITHROMYCIN] | 2.4 (≈ 2.03 µg/mL) | 38 (≈ 32.1 µg/mL) | 0.29 (≈ 0.245 µg/mL) | 4.7 (≈ 3.97 µg/mL) | 4.7 (≈ 3.97 µg/mL) | 0.59 (≈ 0.499 µg/mL) | 4.7 (≈ 3.97 µg/mL) | 9.5 (≈ 8.03 µg/mL) | 0.15 (≈ 0.127 µg/mL) | 100 (≈ 84.5 µg/mL) | 0.2 (≈ 0.169 µg/mL) | 30 (≈ 25.4 µg/mL) | 200 (≈ 169 µg/mL) | 50 (≈ 42.3 µg/mL) | 100 (≈ 84.5 µg/mL) | > 200 | > 38 | 0.071 (≈ 0.06 µg/mL) | > 38 | 2.4 (≈ 2.03 µg/mL)

Further lines, with some results ahead:

MIC (Escherichia coli [1]) [µM] | MIC (Staphylococcus aureus [2]) [µM] | MIC (Streptococcus pneumoniae [3]) [µM] | MIC (Staphylococcus aureus [4]) [µM] | MIC (Escherichia coli [5]) [µM] | MIC (Streptococcus pneumoniae [6]) [µM] | MIC (Staphylococcus aureus [7]) [µM] | MIC (Staphylococcus aureus [8]) [µM] | MIC (Streptococcus pneumoniae [9]) [µM] | Compound | MIC (Klebsiella pneumoniae) [µM] | MIC (Enterococcus faecium) [µM] | MIC (Pseudomonas aeruginosa) [µM] | MIC (Enterobacter cloacae) [µM] | MIC (Acinetobacter baumannii) [µM] | MIC (Escherichia coli [10]) [µM] | MIC (Staphylococcus aureus [11]) [µM] | MIC (Escherichia coli [12]) [µM] | MIC (Staphylococcus aureus [13]) [µM] | MIC (Escherichia coli [14]) [µM] | MIC (Escherichia coli [15]) [µM]
4.8 (≈ 3.99 µg/mL) | > 150 | > 4.8 | > 150 | 4.8 (≈ 3.99 µg/mL) | > 4.8 | > 150 | > 150 | > 4.8 | CC[C@H]1OC(=O)[C@@](C)(F)C(=O)[C@H](C)[C@@H](OC[C@@H](O)CN2CCOCC2)[C@](C)(OC)C[C@@H](C)C(=O)[C@H](C)C2N(CCCCn3cc(-c4cccc(N)c4)nn3)C(=O)O[C@@]21C (single isomer, unassigned) |  |  |  |  |  |  |  |  |  |  | 
> 41 | > 160 | 2.5 (≈ 1.97 µg/mL) | > 160 | > 41 | > 5.1 | > 160 | > 160 | > 5.1 | CC[C@H]1OC(=O)[C@@](C)(F)C(=O)[C@H](C)[C@@H](OC[C@@H](O)CN(C)C)[C@](C)(OC)C[C@@H](C)C(=O)[C@H](C)C2N(CCCCn3cc(-c4cccc(N)c4)nn3)C(=O)O[C@@]21C (single isomer, unassigned) |  |  |  |  |  |  |  |  |  |  | 

— ChEMBL document CHEMBL5154777, “Alternative approaches utilizing click chemistry to develop next-generation analogs of solithromycin” (2022)
